Entries after “also recorded” stand apart in the source; their conditions may differ.
Test: Rheological characterization of hydrogel compositions (shear and extensional rheology)
Type: physicochemical
Details: for change of crossover frequency compared to the Sangelose only hydrogel: 3 wt % Sangelose with 0.75 wt % second agent (αCD 0.05 wt %), 25° C.; for storage modulus (G′) compared to Sangelose only hydrogels / tan (delta) compared to Sangelose only hydrogels: measured at 0.1 rad·s^−1, 3 wt % Sangelose with second agent; for G′ values compared to hydrogels comprising only Sangelose (Tween comparison): at a frequency of 10 rad·s^−1, 3 wt % Sangelose, 0.75 wt % Tween
Procedure: Rheological characterization was performed using a 20-mm diameter serrated parallel plate at a 500-μm gap on a TA Instruments DHR-2 stress-controlled rheometer. All measurements were performed at 25° C. Frequency sweep measurements were performed at a constant 1% strain. Steady shear flow sweeps were performed from high to low shear rates. Stress sweeps were performed from low to high with steady-state sensing and yield stress values defined as the stress at which the viscosity decreases 10% from the maximum. Amplitude sweep measurements were performed at a frequency of 0.1 rad·s^-1. P values are calculated with a one-way ANOVA followed by post hoc Tukey multiple comparison test unless otherwise noted. Extensional rheology was performed on a TA Instruments ARES-G2 rheometer in axial mode using an 8-mm parallel plate geometry (R=4 mm) at a H=4 mm gap, resulting in an aspect ratio of H/R=1. A sample volume of 400 μl was loaded for each of the three replicated measurements. All experiments were performed at 25° C. Samples of the hydrogel compositions were loaded and tested immediately within seconds to minimize dehydration. […] (exponential) strain rates were applied at three different strain rates.

| Molecule | change of crossover frequency compared to the Sangelose only hydrogel | storage modulus (G′) compared to Sangelose only hydrogels | tan (delta) compared to Sangelose only hydrogels | G′ values compared to hydrogels comprising only Sangelose (Tween comparison) |
| --- | --- | --- | --- | --- |
| OCC1O[C@@H]2O[C@@H]3C(CO)O[C@H](O[C@@H]4C(CO)O[C@H](O[C@@H]5C(CO)O[C@H](O[C@@H]6C(CO)O[C@H](O[C@@H]7C(CO)O[C@H](O[C@H]1[C@H](O)[C@H]2O)[C@H](O)[C@H]7O)[C@H](O)[C@H]6O)[C@H](O)[C@H]5O)[C@H](O)[C@H]4O)[C@H](O)[C@H]3O (stereo partly drawn) [αCD, α-cyclodextrin] | shift rightward | lower than the storage modulus of the Sangelose only hydrogels | higher than the tan (delta) values of the Sangelose only hydrogels |  |
| Span 20 | did not change the crossover frequency |  |  |  |
| polyoxyethylene (20) sorbitan monolaurate [Tween 20] | shift rightward | lower than the storage modulus of the Sangelose only hydrogels | higher than the tan (delta) values of the Sangelose only hydrogels; also recorded: significantly higher tan (delta) values | lower G′ values |
| polyoxyethylene (20) sorbitan monooleate [Tween 80] | shift rightward | lower than the storage modulus of the Sangelose only hydrogels | higher than the tan (delta) values of the Sangelose only hydrogels; also recorded: significantly higher tan (delta) values | lower G′ values |
| polyoxyethylene (20) sorbitan monopalmitate [Tween 40] |  |  | significantly higher tan (delta) values | lower G′ values |

— US20260166114A1, “DYNAMIC HYDROGEL COMPOSITIONS” (The Board of Trustees of the Leland Stanford Junior …, priority 2022, published 2026)
